Tests used:
[1] = test system: Stage 59-60 Xenopus tadpoles; assay: Xenopus tadpole assay; format: in vivo, Xenopus laevis; settings: 10 μg/ml in water; for Pharmacological response observed in tadpole: about 1 hour
Method in brief: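 Stage 59-60 Xenopus laevis tadpoles placed in compound dissolved in distilled water at 10 μg/ml, allowing oral uptake and systemic exposure. After 1 hour, capillary blood-flow occlusion in the tail was scored by inverted microscopy (~100×) plus gross observation.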

[2] = Fasting blood glucose in mice; format: in vivo; settings: for Fasting Blood Glucose Mean + SEM: male CD-1 mice, 2 × 10 mg/kg i.v. (total 20 mg/kg), overnight fast, blood 30 min. after 2d dose, 1437 and 1256 in H2O, 1436 in D5W
Method: To study the effect of steroid administrator or the NHE responsible for secretion of insulin, several of the aminosterols from shark liver were administered to fasting mice. Male CD-1 mice were assigned to one of four treatment groups. Whole blood glucose was tested using glucometer (Lifescan Glucometer II and One Touch test strips). Statistical analysis was via one-way analysis of variance (ANOVA) followed by subsequent Bonferonni's t-test.

[3] = test system: VX2 carcinoma; assay: Tumor-induced corneal neovascularization in rabbits; format: in vivo, rabbit; settings: pellet of ELVAX 40 P
Description: The implantation of VX2 carcinoma into the rabbit cornea results in the induction of new blood vessels within several days (Tamargo et al., Cancer Research 51, 1991, 672-675). It is believed that this carcinoma secretes growth factors that stimulate new blood-vessel growth. Thus, this model is indicative in vivo evidence of therapeutic utility in the treatment of pathological disorders of vascularization, including the metastatic spread of tumors, diabetic retinopathy, macular degeneration, and rheumatoid arthritis.
This experiment followed the published protocol—tumor was implanted adjacent to a polymer containing a concentration of the agent to be evaluated. The polymer releases the agent slowly in the immediate neighborhood of the tumor, providing sustained high local concentrations of the agent. In this experiment, squalamine introduced into a pellet of ELVAX 40 P (DuPont, Wilmington, Del.) inhibited new blood vessel formation by about 60% at days 7 and 14, and by about 25% at day 21.

[4] = test system: vitelline capillaries of 3- to 5-day chick embryo; assay: Chick embryo vitelline capillary regression assay; format: in vivo; parameters: key to Vascular reactivity (capillary regression): + = Vascular reactivity; 0 = No vascular reactivity; +/− = Equivocal reactivity; settings: for Vascular reactivity (capillary regression): 60 minutes
Method in brief: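 Compounds were applied onto the 3- to 5-day embryo in 0.1 ml 15% Ficol 400 in PBS. Vascular regression was assessed visually after 60 min, scoring capillary constriction and pinching-off into enclosed blood-island-like sacs.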

[5] = test system: B16 melanoma; assay: Growth of B16 melanoma in C57B mice; format: in vivo
Method: The growth of B16 melanoma in C57B mice is dependent upon neovascularization.
Using the growth of B16 melanoma cells in C57B mice, a recognized model for the evaluation of inhibitors of angiogenesis on the growth of cancers, the effects of subcutaneous, intraperitoneal and oral administration of squalamine were evaluated.
Animals were implanted with B16 melanoma followed by treatment with compound 1436 or 1256 administered in a combined schedule or separately. […] Thus, a combination of these two compounds achieves a therapeutic benefit in tumors dependent on neovascularization that may prevent metastatic spread.

[6] = test system: PHA-stimulated human lymphocytes; assay: Inhibition of mitogen-stimulated growth of human T-cells; format: cell-based; settings: 72 hours
Method: Human heparinized blood, freshly collected, was introduced into tissue culture flasks containing 10 μg/ml phytohaemagglutinin (PHA) in RPMI medium with 10% FCS. Various purified steroids were introduced subsequently at concentrations of 1, 5, and 10 μg/ml. Cultures were incubated for 72 hours, after which time colcemid was added to 1 μg/ml. Cultures were maintained for an additional 2 hours, and cells collected. Mitotic figures were estimated using standard cytochemical techniques, following Giemsa staining.

[7] = Arterial pressure in catheterized rat; format: in vivo
Method: A 200-g rat was catheterized in the right carotid artery, and the compound was introduced over a ten-second period to a total dosage of 5 mg/kg. Within 30 seconds, the mean arterial pressure had fallen from about 100 mm Hg to about 70 mm Hg, with a marked reduction in pulse pressure from about 40 mm to about 10 mm. […] If cardiac output was basically unaffected, reduction in blood pressure would have resulted principally from a reduction in system resistance.
At that time, 40 μg of noradrenaline was introduced.

Row | SMILES | Pharmacological category in tadpole assay (similarity to a reference steroid) [1] | Time to death of tadpole [1] | Pharmacological response observed in tadpole [1] | Fasting Blood Glucose Mean + SEM [2] [mg/dL] | Vascular reactivity (capillary regression) ([4]; 0.001 μg applied) | Vascular reactivity (capillary regression) ([4]; 0.01 μg applied) | Vascular reactivity (capillary regression) ([4]; 0.1 μg applied) | Vascular reactivity (capillary regression) ([4]; 1 μg applied) | Vascular reactivity (capillary regression) ([4]; 10 μg applied) | Inhibition of PHA-stimulated human lymphocytes ([6]; 1 μg/ml) [% control] | Inhibition of PHA-stimulated human lymphocytes ([6]; 5 μg/ml) [% control] | Inhibition of PHA-stimulated human lymphocytes ([6]; 10 μg/ml) [% control] | further results
1 | CC(CC[C@@H](OS(=O)(=O)O)C(C)C)[C@H]1CCC2C3C(CC[C@@]21C)[C@@]1(C)CC[C@H](NCCCNCCCCN)C[C@@H]1C[C@H]3O (stereo partly shown) [squalamine] | common vascular occlusive effect | ≤ 2 h | blood flow through the capillaries of the tail shut down | 65 ± 7.3 | 0 | + | + | + | + | 3 | 8 | 10 | Pharmacological response observed in tadpole ([1]; listed as Compound 1256): Vascular occlusion in fine capillaries of tail; Inhibition of new blood vessel formation ([3]; day 21): about 25%; Inhibition of new blood vessel formation ([3]; days 7 and 14): about 60%; Body weight and hematologic parameters ([5]; during squalamine treatment): no significant depression; Impact on tumor volume ([5]; squalamine 5 mg/kg/day alone): no significant impact on tumor volume; Suppression of tumor volume ([5]; squalamine intraperitoneally): dose-dependent suppression of tumor volume; Suppression of tumor volume ([5]; squalamine orally): dose-dependent suppression of tumor volume; Suppression of tumor volume ([5]; squalamine subcutaneously): dose-dependent suppression of tumor volume
2 | CC(CC[C@@H](OS(=O)(=O)O)C(C)C)[C@H]1CCC2C3C(CC[C@@]21C)[C@@]1(C)CC[C@H](NCCCNCCCCNCCCN)C[C@@H]1C[C@H]3O (stereo partly shown) [Compound 1436] | common vascular occlusive effect | about 2 hours | Gradual reduction in overall activity. Heart beat remained strong, suggesting nervous system depression. Melanocytes over head and tail began to swell, first exhibiting visibly distinct nuclei, followed by rupture into fragments | 105 ± 8.0 | +/− | + | + | + | + | 20 | 50 | 80 | Pharmacological response observed in tadpole ([1]; listed as compound 1436): dramatic disruption of melanocytes over its head, trunk, and tail, along with depression of its nervous system; Heart rate ([7]; 5 mg/kg): no significant increase in heart rate; Time to fall of arterial pressure ([7]; 5 mg/kg): ≤ 30 s; Mean arterial pressure after dosing ([7]; 5 mg/kg over ten seconds, fallen from about 100 mm Hg): about 70 mm Hg; Pulse pressure after dosing ([7]; 5 mg/kg, reduced from about 40 mm): about 10 mm; Effect on blood glucose ([2]; intravenous, 1436 in D5W (5% glucose), 1437 in water): caused hyperglycemia in mice; Effect on chick embryo capillary bed ([4]; in vivo): causes vitelline capillary regression with about the same potency as squalamine; Impact on tumor volume ([5]; compound 1436 10 mg/kg/every 3 days alone): no significant impact on tumor volume

From US6962909B2, “Treatment of neovascularization disorders with squalimine” (Genaera Corporation, priority 1995, dated 2005)
